Data: EP0663826B1, “AMINO ACIDS CONTAINING PARENTERAL FORMULATIONS FOR THE TREATMENT OF HYPOTENSION AND RELATED PATHOLOGIES” (BOARD OF REGENTS THE UNIVERSITY OF TEXAS SYSTEM, priority 1991, dated 1993)

System: endotoxin-induced shock in dogs
Experiment: Endotoxin-induced hypotension in dogs (with nitroglycerin and control dogs)
Assay type: in vivo
Protocol: Animals: Studies were carried out on 12 conditioned mongrel dogs (9 males and 3 females) weighing 22-32 kg (avg=25.3 kg). Animal care was in accordance with the recommendations of the American Association for Accreditation of Laboratory Animal Care, and met all standards prescribed by the Guide for the Care and Use of Laboratory Animals (Guide for the Care and Use of Laboratory Animals (1978) Dept. of Health, Education and Welfare, Washington, D.C. (Publ. No. 78-23). Animal protocols were approved by The University of Texas Animal Welfare committee. The dogs were fasted overnight prior to the day of experimentation. They were anesthetized with sodium pentobarbital (25 mg/kg i.v.). Dogs were then endotracheally intubated and ventilated with a piston-driven respirator (Harvard instruments) using room air at a tidal volume of 15 ml/kg and at a rate of 12 to 14 breaths per minute, adjusted to achieve a normal arterial pH and pCO2 (Instrumentation Laboratories lL1302 pH/Blood Gas Analyzer). Catheters were placed percutaneously into the femoral and pulmonary arteries; In the latter, a flow-directed thermal-dilation catheter was used (Abbott Critical Care Systems).
Physiologic measurements: Mean SAP and heart rate were continuously monitored (Parametron 7048 Monitoring System, Roche) and stored on a magnetic disk using an analog-to-digital converter (Scientific Solutions, Inc.). Cardiac output (CO) was determined as the mean of six measurements by thermal-dilution. Systemic vascular resistance was calculated as (SAP X80)/CO and expressed as dynes-sec/cm^5 (kg/s·cm^4).
Protocol: After the blood pressure and heart rate stabilized, endotoxin (40 µg/kg, in 10 ml of phosphate-buffered saline (PBS), pH 7.4) was infused i.v. over 2 minutes. This dose of endotoxin typically induces severe and often lethal cardiovascular collapse in the dog. Blood pressure was monitored, and when either SAP fell below 60 mm Hg or a stable nadir in systemic arterial pressure (SAP) was maintained for 10 minutes, L-NMA was administered (20 mg/kg in 5 ml of PBS i.v. over 1 min.). In most experiments, L-arginine (400 mg/kg in 20 ml PBS) was administered ten minutes later by i.v. infusion over 2 minutes. In control experiments, dogs without prior exposure to endotoxin received L-NMA alone. To simulate the hypotension observed in dogs receiving endotoxin, one group of dogs received a continuous i.v. infusion of nitroglycerin (2 mg/ml) at a rate adjusted to maintain the SAP at 60-70 mm Hg. Nitroglycerin-treated dogs then received L-NMA (20 mg/kg) and 20 minutes later L-arginine was administered ([…]).
Statistics: Statistical significance was evaluated using Student's test and either a one-tailed or two-tailed analysis as appropriate for comparisons.

N=C(N)NCCC[C@H](N)C(=O)O [L-arginine]
ΔSAP after L-arginine (Figure 6 dog, endotoxin and 2 doses L-NMA): -77 mm Hg
Cardiac Output (Study 1: Endotoxin-treated dogs (n=4), means ± S.E., same sequence, baseline 2.99 ± 0.32): 2.99 ± 0.32 L/min
Heart Rate (Study 1: Endotoxin-treated dogs (n=4), means ± S.E., same sequence, baseline 119.5 ± 6.0): 119.5 ± 6.0 beats/min
Systemic Vascular Resistance (Study 1: Endotoxin-treated dogs (n=4), means ± S.E., same sequence, baseline 3565 ± 454): 3565 ± 454 dynes-sec/cm^5
Systemic Arterial Pressure (Study 1: Endotoxin-treated dogs (n=4), means ± S.E., sequence endotoxin 40 µg/kg, L-NMA 20 mg/kg, 10 min later L-arginine 400 mg/kg (measured 2 min later), baseline 128.3 ± 9.4): 128.3 ± 9.4 mmHg
Systemic Vascular Resistance (Study 1: Endotoxin-treated dogs (n=4), means ± S.E., value in brackets): 3.565 ± 0.454 Kg/s·cm^4
Cardiac Output (Study 2: Nitroglycerin-treated dogs (n=3), means ± S.E., baseline 3.14 ± 0.21): 5.15 ± 1.08 L/min
Heart Rate (Study 2: Nitroglycerin-treated dogs (n=3), means ± S.E., baseline 143.7 ± 12.1): 148.7 ± 19.9 beats/min
Systemic Vascular Resistance (Study 2: Nitroglycerin-treated dogs (n=3), means ± S.E., baseline 3294 ± 74): 1088 ± 491 dynes-sec/cm^5
Systemic Arterial Pressure (Study 2: Nitroglycerin-treated dogs (n=3), means ± S.E., continuous nitroglycerin (2 mg/ml) titrated to SAP 65 mm Hg, then L-NMA 20 mg/kg, then L-arginine, baseline 129.3 ± 10.2): 57.0 ± 13.0 mmHg
Systemic Vascular Resistance (Study 2: Nitroglycerin-treated dogs (n=3), value in brackets): 1.088 ± 0.491 Kg/s·cm^4
effect on the pressor effect of L-NMA (control dogs, L-arginine 400 mg/kg): fully reversed
